# Measured values as given in US20220243210A1, “ANGIOTENSIN II TYPE 1 RECEPTOR TARGETED OLIGONUCLEOTIDES AND USES THEREOF” (Ionis Pharmaceuticals, Inc., priority 2019, published 2022).
# Oligonucleotides are written 5' to 3', each unit as a sugar letter and its base; * is a phosphorothioate linkage, no mark a phosphodiester; rarer units and linkages stand in square brackets, end groups in braces. Plain capitals give the bases only. k = constrained ethyl (cEt); [5mC] = 5-methylcytosine; d = 2'-deoxy (DNA)
# Key:
# human AGTR1 = molecular target: T1, human AGTR1 (Homo sapiens, UniProt P30556); test: AGTR1 signaling, IP-One Gq kit (IP1 accumulation), HEK-AGTR1 FAP cells; assay type: cell-based; conditions: 90 minutes
# T1 construct: host or cells: HEK293 (HEK-AGTR1 FAP cells)
# T1 sequence (P30556 1-359): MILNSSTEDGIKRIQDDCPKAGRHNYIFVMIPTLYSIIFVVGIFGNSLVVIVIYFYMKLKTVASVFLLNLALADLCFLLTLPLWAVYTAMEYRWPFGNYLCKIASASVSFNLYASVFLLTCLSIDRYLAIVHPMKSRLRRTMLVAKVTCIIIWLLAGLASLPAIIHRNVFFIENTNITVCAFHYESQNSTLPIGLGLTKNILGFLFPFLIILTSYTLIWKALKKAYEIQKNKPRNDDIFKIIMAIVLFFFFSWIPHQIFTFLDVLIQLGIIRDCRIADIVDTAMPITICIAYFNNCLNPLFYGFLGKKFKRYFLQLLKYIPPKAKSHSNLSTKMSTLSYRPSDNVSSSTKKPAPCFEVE
# Method: (§1) Activated AGTR1 couples to the Gαq subunit of heterotrimeric G proteins, which activates the phospholipase C (PLC) and subsequently inositol 1,4,5-trisphosphate (IP3) signaling cascade. AGTR1 signaling was measured using an IP-One Gq kit (cisbio #62IPAPEB). The kit detects the accumulation of inositol monophosphate (IP1), a stable downstream metabolite of IP3 induced by activation of a phospholipase C (PLC) cascade.
# An additional control compound, AngII, which consists of the peptide motif […], was also tested. […] AGTR1 activation was measured using the IP-One Gq kit.
# HEK-APLNR FAP cells = test: IP1 accumulation negative control in HEK-APLNR FAP cells (do not express AGTR1); assay type: cell-based, human; conditions: 24 hours
# Method: as §1
# As a negative control, Compound Nos. 556089 and 1229761 were also tested in HEK293 cells expressing FAP tagged human Apelin receptor (HEK-APLNR FAP cells from Spectragenetics). […] HEK-APLNR FAP cells were cultured with Compound Nos. 556089 and 1229761, described herein above, at the concentrations detailed in Table 2 for 24 hours.
# human MALAT1 RNA [1] = test: MALAT1 RNA reduction in HEK-AGTR1 FAP cells, free uptake, 24 hours; assay type: cell-based; conditions: 24 hours; for MALAT (% control): relative to untreated control cells
# Method: (§2) At the end of the treatment period, total RNA was isolated from the cells and MALAT1 RNA levels were measured by quantitative real-time PC&. […] MALAT1 RNA levels were normalized according to total RNA content, as measured by RIBOGREEN®. Reduction of MALAT1 RNA is presented Table 3 below as percent MALAT1 RNA amount relative to untreated control (UTC) cells. The half maximal inhibitory concentration (IC50) of each modified oligonucleotide was calculated using a non-linear fit [inhibitor] vs. response—variable slope (four parameters) formula in GraphPad Prism 7.01.
# human MALAT1 RNA [2] = test: MALAT1 RNA reduction in HEK-AGTR1 FAP cells, free uptake, 48 hours; assay type: cell-based; conditions: 48 hours; for MALAT (% control): relative to untreated control cells
# Method: as §2, with “PCR.” for “PC&.”, “Reduction of MALAT1 RNA is presented Table 3 below as percent MALAT1 RNA amount relative to untreated control (UTC) cells.” left out, “response-variable” for “response—variable”, “(three” for “(four”
# mouse MALAT RNA = test: MALAT RNA reduction in vivo, C57BL6/J mice, multiple dose; conditions: for ED50: IV day 0, 4, 8
# Method: Compound Nos. 556089, 1229761, and 1229762 are described in Table 1 above. Compound Nos. 556089, 1229761, and 1229762 were tested in C57BL6/J mice. The mice were divided into groups of 4 mice each. […] The mice were then sacrificed on day 12. Heart, adipose, adrenal, kidney, and liver tissue was then collected and homogenized and RNA analysis was performed. A group of 4 mice received PBS as a negative control.
# RNA was extracted from heart, adipose, adrenal, kidney, and liver tissue for real-time PCR analysis of measurement of RNA expression of MALAT using primer probe set mMALAT1 #2 (forward sequence […] (SEQ ID NO: 5); reverse sequence […] (SEQ ID NO: 6); probe sequence […] (SEQ ID NO: 7)). Results are presented as percent change of RNA, relative to PBS control, normalized to mouse GAPDH.
substance,measurement,setting,value
"Compound No. 556089: Control unconjugated parent modified oligonucleotide GCATTCTAATAGCAGC, cEt gapmer, phosphorothioate, complementary to mouse MALAT1 RNA (kG*k[5mC]*kA*dT*dT*d[5mC]*dT*dA*dA*dT*dA*dG*d[5mC]*kA*kG*k[5mC]) [reference compound]",IP1 accumulation,human AGTR1; 0.0256 nM,696 nM
same,IP1 accumulation,human AGTR1; 0.128 nM,669 nM
same,IP1 accumulation,human AGTR1; 0.64 nM,692 nM
same,IP1 accumulation,human AGTR1; 3.2 nM,658 nM
same,IP1 accumulation,human AGTR1; 16 nM,646 nM
same,IP1 accumulation,human AGTR1; 80 nM,605 nM
same,IP1 accumulation,human AGTR1; 400 nM,648 nM
same,IP1 accumulation,human AGTR1; 2000 nM,672 nM
same,IP1 accumulation,HEK-APLNR FAP cells; 0.0256 nM,584 nM
same,IP1 accumulation,HEK-APLNR FAP cells; 0.128 nM,536 nM
same,IP1 accumulation,HEK-APLNR FAP cells; 0.64 nM,563 nM
same,IP1 accumulation,HEK-APLNR FAP cells; 3.2 nM,538 nM
same,IP1 accumulation,HEK-APLNR FAP cells; 16 nM,526 nM
same,IP1 accumulation,HEK-APLNR FAP cells; 80 nM,514 nM
same,IP1 accumulation,HEK-APLNR FAP cells; 400 nM,553 nM
same,IP1 accumulation,HEK-APLNR FAP cells; 2000 nM,542 nM
same,MALAT (% control),human MALAT1 RNA [1]; 12 nM,86 % control
same,MALAT (% control),human MALAT1 RNA [1]; 37 nM,98 % control
same,MALAT (% control),human MALAT1 RNA [1]; 111 nM,91 % control
same,MALAT (% control),human MALAT1 RNA [1]; 333 nM,63 % control
same,MALAT (% control),human MALAT1 RNA [1]; 1000 nM,60 % control
same,MALAT (% control),human MALAT1 RNA [1]; 3000 nM,36 % control
same,MALAT (% control),human MALAT1 RNA [1]; 9000 nM,29 % control
same,IC50,"human MALAT1 RNA [1]; MALAT1 RNA, four parameter fit",850 nM
same,MALAT (% control),human MALAT1 RNA [2]; 2.7 nM,97 % control
same,MALAT (% control),human MALAT1 RNA [2]; 8.2 nM,100 % control
same,MALAT (% control),human MALAT1 RNA [2]; 24.7 nM,104 % control
same,MALAT (% control),human MALAT1 RNA [2]; 74.1 nM,99 % control
same,MALAT (% control),human MALAT1 RNA [2]; 222.2 nM,82 % control
same,MALAT (% control),human MALAT1 RNA [2]; 666.7 nM,68 % control
same,MALAT (% control),human MALAT1 RNA [2]; 2000 nM,43 % control
same,MALAT (% control),human MALAT1 RNA [2]; 6000 nM,25 % control
same,MALAT (% control),human MALAT1 RNA [2]; .10 nM,104 % control
same,MALAT (% control),human MALAT1 RNA [2]; .3 nM,106 % control
same,MALAT (% control),human MALAT1 RNA [2]; .9 nM,101 % control
same,IC50,"human MALAT1 RNA [2]; MALAT1 RNA, three parameter fit",1530 nM
same,MALAT-1 RNA (% control),"mouse MALAT RNA; Adipose, 0.4 μmol/kg IV day 0, 4, 8, sacrifice day 12, relative to PBS",68.4 % control
same,MALAT-1 RNA (% control),"mouse MALAT RNA; Adipose, 1.2 μmol/kg IV day 0, 4, 8, sacrifice day 12, relative to PBS",41.1 % control
same,MALAT-1 RNA (% control),"mouse MALAT RNA; Adipose, 3.6 μmol/kg IV day 0, 4, 8, sacrifice day 12, relative to PBS",27.3 % control
same,ED50,mouse MALAT RNA; Adipose,0.034 µmol/kg
same,MALAT-1 RNA (% control),"mouse MALAT RNA; Adrenal, 0.4 μmol/kg IV day 0, 4, 8, sacrifice day 12, relative to PBS",95.2 % control
same,MALAT-1 RNA (% control),"mouse MALAT RNA; Adrenal, 1.2 μmol/kg IV day 0, 4, 8, sacrifice day 12, relative to PBS",75.7 % control
same,MALAT-1 RNA (% control),"mouse MALAT RNA; Adrenal, 3.6 μmol/kg IV day 0, 4, 8, sacrifice day 12, relative to PBS",64.1 % control
same,ED50,mouse MALAT RNA; Adrenal,1.102 µmol/kg
same,MALAT-1 RNA (% control),"mouse MALAT RNA; Heart, 0.4 μmol/kg IV day 0, 4, 8, sacrifice day 12, relative to PBS",76.7 % control
same,MALAT-1 RNA (% control),"mouse MALAT RNA; Heart, 1.2 μmol/kg IV day 0, 4, 8, sacrifice day 12, relative to PBS",74.7 % control
same,MALAT-1 RNA (% control),"mouse MALAT RNA; Heart, 3.6 μmol/kg IV day 0, 4, 8, sacrifice day 12, relative to PBS",45.7 % control
same,ED50,mouse MALAT RNA; Heart,4.11 µmol/kg
same,MALAT-1 RNA (% control),"mouse MALAT RNA; Kidney, 0.4 μmol/kg IV day 0, 4, 8, sacrifice day 12, relative to PBS",50.0 % control
same,MALAT-1 RNA (% control),"mouse MALAT RNA; Kidney, 1.2 μmol/kg IV day 0, 4, 8, sacrifice day 12, relative to PBS",46.7 % control
same,MALAT-1 RNA (% control),"mouse MALAT RNA; Kidney, 3.6 μmol/kg IV day 0, 4, 8, sacrifice day 12, relative to PBS",24.6 % control
same,ED50,mouse MALAT RNA; Kidney,3.535 µmol/kg
same,MALAT-1 RNA (% control),"mouse MALAT RNA; Liver, 0.4 μmol/kg IV day 0, 4, 8, sacrifice day 12, relative to PBS",35.8 % control
same,MALAT-1 RNA (% control),"mouse MALAT RNA; Liver, 1.2 μmol/kg IV day 0, 4, 8, sacrifice day 12, relative to PBS",24.1 % control
same,MALAT-1 RNA (% control),"mouse MALAT RNA; Liver, 3.6 μmol/kg IV day 0, 4, 8, sacrifice day 12, relative to PBS",7.2 % control
same,ED50,mouse MALAT RNA; Liver,1.578 µmol/kg
